Earlier results as cited in paper PMC3085958 (Journal of medicinal chemistry, 2011).
Marks after values point to notes of the source that are not given here.

Biological target: CB2 receptors (Homo sapiens, UniProt P34972)
Details: Kb value

Sequence of CB2 receptors (P34972 whole entry): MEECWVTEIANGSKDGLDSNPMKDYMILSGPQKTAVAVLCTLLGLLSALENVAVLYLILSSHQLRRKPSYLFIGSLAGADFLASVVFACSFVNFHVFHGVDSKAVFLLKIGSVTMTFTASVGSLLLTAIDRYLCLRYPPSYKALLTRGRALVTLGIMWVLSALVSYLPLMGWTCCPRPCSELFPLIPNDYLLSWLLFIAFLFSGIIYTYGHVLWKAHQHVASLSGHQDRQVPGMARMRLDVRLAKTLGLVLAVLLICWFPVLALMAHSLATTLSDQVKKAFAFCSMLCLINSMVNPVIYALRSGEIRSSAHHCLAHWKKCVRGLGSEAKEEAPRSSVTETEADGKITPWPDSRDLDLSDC

For `COc1cccc([C@H]2C[C@@H](N[C@H](C)c3ccccc3)C(=O)N2c2ccc(C(F)(F)F)cc2)c1` [Ligand 3], which “CB2 Kb (in the CB2 Ki column)” value is on record?
Its value is > 1,980 ^c nM.
